Results on eight compounds are retold here after ChEMBL document CHEMBL4725405, “Synthesis and evaluation of 17α-triazolyl and 9α-cyano derivatives of estradiol” (Bioorg Med Chem, 2020).

The EC50 is the midpoint of the concentration-response curve.

T2 sequence (Q92731 whole entry, the tested form may be a part): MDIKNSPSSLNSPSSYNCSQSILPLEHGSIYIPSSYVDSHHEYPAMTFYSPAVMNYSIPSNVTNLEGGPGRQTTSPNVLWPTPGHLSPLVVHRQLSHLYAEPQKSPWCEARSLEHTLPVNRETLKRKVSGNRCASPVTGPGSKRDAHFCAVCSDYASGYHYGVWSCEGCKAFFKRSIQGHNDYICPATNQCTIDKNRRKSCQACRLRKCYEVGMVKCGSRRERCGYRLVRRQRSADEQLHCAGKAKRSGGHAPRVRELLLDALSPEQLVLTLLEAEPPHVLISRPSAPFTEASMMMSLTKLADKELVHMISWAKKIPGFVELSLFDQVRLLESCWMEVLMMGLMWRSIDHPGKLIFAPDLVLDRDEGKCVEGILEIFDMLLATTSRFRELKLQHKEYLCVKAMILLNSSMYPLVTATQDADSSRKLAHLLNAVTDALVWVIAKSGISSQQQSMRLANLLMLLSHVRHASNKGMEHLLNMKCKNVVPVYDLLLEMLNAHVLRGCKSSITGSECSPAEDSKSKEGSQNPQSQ

The target in one experiment is T1, Estrogen receptor (Homo sapiens, UniProt P03372).
T1 sequence (P03372 whole entry): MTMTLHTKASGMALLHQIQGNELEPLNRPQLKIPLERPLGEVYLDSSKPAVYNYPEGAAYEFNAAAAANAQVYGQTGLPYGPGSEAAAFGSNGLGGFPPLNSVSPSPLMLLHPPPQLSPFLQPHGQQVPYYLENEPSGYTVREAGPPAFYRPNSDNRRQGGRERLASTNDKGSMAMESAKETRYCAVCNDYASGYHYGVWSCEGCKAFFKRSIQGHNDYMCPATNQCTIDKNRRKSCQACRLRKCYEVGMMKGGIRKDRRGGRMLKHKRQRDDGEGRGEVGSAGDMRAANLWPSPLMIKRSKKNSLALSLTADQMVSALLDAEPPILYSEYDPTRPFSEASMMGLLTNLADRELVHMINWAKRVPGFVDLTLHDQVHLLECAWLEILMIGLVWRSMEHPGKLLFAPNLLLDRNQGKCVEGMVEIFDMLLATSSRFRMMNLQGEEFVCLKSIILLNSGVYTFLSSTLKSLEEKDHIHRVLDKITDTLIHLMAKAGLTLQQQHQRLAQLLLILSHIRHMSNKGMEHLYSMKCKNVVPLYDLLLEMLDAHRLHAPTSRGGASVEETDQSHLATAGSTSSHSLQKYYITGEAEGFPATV
Conditions: not given
As to `C[C@]12CC[C@@H]3c4ccc(O)cc4CC[C@H]3[C@@H]1CC[C@@]2(O)c1cn(-c2ccc(O)cc2)nn1`, the concentration for a half-maximal effect (EC50) was 0.87 nM.

`C[C@]12CC[C@]3(C#N)c4ccc(O)cc4CC[C@H]3[C@@H]1CCC2=O` came in with an EC50 of 88 nM.

Take `C[C@]12CC[C@@H]3c4ccc(O)cc4CC[C@H]3[C@@H]1CC[C@@]2(O)c1cn(-c2cccc(O)c2)nn1`: the EC50 came to 68 nM.

`C#C[C@]1(O)CC[C@H]2[C@@H]3CCc4cc(O)ccc4[C@@]3(C#N)CC[C@@]21C`: the EC50 was 22 nM.

The compound `C[C@]12CC[C@@H]3c4ccc(O)cc4CC[C@H]3[C@@H]1CC[C@@]2(O)c1cn(CCO)nn1` displayed an EC50 of 149 nM. Against the preceding compound, the EC50 is about 6.8-fold higher.

In the case of `C[C@]12CC[C@]3(C#N)c4ccc(O)cc4CC[C@H]3[C@@H]1CC[C@@H]2O`, the response was half-maximal at 0.38 nM (EC50).

As for `C[C@]12CC[C@@H]3c4ccc(O)cc4CC[C@H]3[C@@H]1CC[C@@]2(O)c1cn(-c2ccccc2)nn1`, the half-maximal effective concentration (EC50) was 5 nM.

A further experiment has as its target T2, Estrogen receptor beta (Homo sapiens, UniProt Q92731). The experiment in a line: Displacement of fluormone from GST-tagged ERbeta receptor LBD (unknown origin) measured after 60 mins by TR-FRET competitive binding assay relative to control. To be noted: filed as agonist. In general terms: In TR-FRET formats the signal depends on donor and acceptor labels being close together.
`C[C@]12CC[C@@H]3c4ccc(O)cc4CC[C@H]3[C@@H]1CC[C@@]2(O)c1cn(-c2cccc(O)c2)nn1`: the Activity was found to be 60%.

Another experiment addresses T1, Estrogen receptor.
Conditions: not given
The source holds these as a separate data set.
Turning to `C[C@]12CC[C@@H]3c4ccc(O)cc4CC[C@H]3[C@@H]1CC[C@@]2(O)c1cn(-c2ccc(O)cc2)nn1`, the half-maximal effective concentration (EC50) was > 10000 nM.

Take `C[C@]12CC[C@]3(C#N)c4ccc(O)cc4CC[C@H]3[C@@H]1CCC2=O`: the EC50 is > 10000 nM.

Regarding `C[C@]12CC[C@@H]3c4ccc(O)cc4CC[C@H]3[C@@H]1CC[C@@]2(O)c1cn(-c2cccc(O)c2)nn1`, the 50% effective concentration (EC50) was > 1000 nM.

On to `C#C[C@]1(O)CC[C@H]2[C@@H]3CCc4cc(O)ccc4[C@@]3(C#N)CC[C@@]21C`, for which the half-maximal effective concentration (EC50) is > 10000 nM.

In the case of `C[C@]12CC[C@@H]3c4ccc(O)cc4CC[C@H]3[C@@H]1CC[C@@]2(O)c1cn(CCO)nn1`, the 50% effective concentration (EC50) is > 10000 nM.

With `C[C@]12CC[C@]3(C#N)c4ccc(O)cc4CC[C@H]3[C@@H]1CC[C@@H]2O`, the EC50 is > 5000 nM.

Turning to `C[C@]12CC[C@@H]3c4ccc(O)cc4CC[C@H]3[C@@H]1CC[C@@]2(O)c1cn(-c2ccccc2)nn1`, the EC50 is > 1000 nM.

The target of a further experiment is T3, Estrogen receptor (Homo sapiens) (UniProt P03372).
T3 sequence (whole entry): T1 sequence (P03372 whole entry)
The experiment can be described thus: Agonist activity at full length human ERalpha receptor assessed as transcriptional activity incubated for 22 to 24 hrs by cell based luciferase reporter gene assay relative to control. As to conditions: filed as agonist. (In general: A reporter such as luciferase makes a cellular process visible.)
For `C[C@]12CC[C@@H]3c4ccc(O)cc4CC[C@H]3[C@@H]1CC[C@@]2(O)c1cn(-c2cccc(O)c2)nn1`, the Activity was found to be 46%.

Another experiment has as its target T2, Estrogen receptor beta.
Conditions: not given
`C[C@]12CC[C@@H]3c4ccc(O)cc4CC[C@H]3[C@@H]1CC[C@@]2(O)c1cn(-c2ccc(O)cc2)nn1`: the response was half-maximal at 0.81 nM (EC50).

The compound `C[C@]12CC[C@]3(C#N)c4ccc(O)cc4CC[C@H]3[C@@H]1CCC2=O` had a 50% effective concentration (EC50) of 9 nM.

For the compound `C[C@]12CC[C@@H]3c4ccc(O)cc4CC[C@H]3[C@@H]1CC[C@@]2(O)c1cn(-c2cccc(O)c2)nn1`, the 50% effective concentration (EC50) stood at 21 nM.

`C#C[C@]1(O)CC[C@H]2[C@@H]3CCc4cc(O)ccc4[C@@]3(C#N)CC[C@@]21C` registered an EC50 of 14 nM.

`C[C@]12CC[C@@H]3c4ccc(O)cc4CC[C@H]3[C@@H]1CC[C@@]2(O)c1cn(CCO)nn1` gave a concentration for a half-maximal effect (EC50) of 16 nM.

`C[C@]12CC[C@]3(C#N)c4ccc(O)cc4CC[C@H]3[C@@H]1CC[C@@H]2O`: the response was half-maximal at 0.029 nM (EC50).

The next experiment addresses T2, Estrogen receptor beta.
Conditions: not given
The source holds these as a separate data set.
The compound `C[C@]12CC[C@@H]3c4ccc(O)cc4CC[C@H]3[C@@H]1CC[C@@]2(O)c1cn(-c2ccc(O)cc2)nn1` had an EC50 of 0.65 nM.

As for `C[C@]12CC[C@]3(C#N)c4ccc(O)cc4CC[C@H]3[C@@H]1CCC2=O`, a half-maximal response (EC50) required 78 nM.

`C[C@]12CC[C@@H]3c4ccc(O)cc4CC[C@H]3[C@@H]1CC[C@@]2(O)c1cn(-c2cccc(O)c2)nn1` displayed an EC50 of 12 nM. This EC50 lies about 6.5-fold lower than the previous one.

`C#C[C@]1(O)CC[C@H]2[C@@H]3CCc4cc(O)ccc4[C@@]3(C#N)CC[C@@]21C` gave an EC50 of 51 nM.

As for `C[C@]12CC[C@]3(C#N)c4ccc(O)cc4CC[C@H]3[C@@H]1CC[C@@]2(O)c1cn(CCO)nn1`, the half-maximal effective concentration (EC50) stood at 4400 nM.

Take `C[C@]12CC[C@@H]3c4ccc(O)cc4CC[C@H]3[C@@H]1CC[C@@]2(O)c1cn(CCO)nn1`: the 50% effective concentration (EC50) came out at 50 nM.

As to `C[C@]12CC[C@]3(C#N)c4ccc(O)cc4CC[C@H]3[C@@H]1CC[C@@H]2O`, it took 0.27 nM to reach a half-maximal effect (EC50).

A further experiment addresses T2, Estrogen receptor beta.
Conditions: not given
The source holds these as a separate data set.
Consider `C[C@]12CC[C@@H]3c4ccc(O)cc4CC[C@H]3[C@@H]1CC[C@@]2(O)c1cn(-c2ccc(O)cc2)nn1`, for which the EC50 was > 10000 nM.

As to `C[C@]12CC[C@]3(C#N)c4ccc(O)cc4CC[C@H]3[C@@H]1CCC2=O`, the EC50 is > 5000 nM.

Turning to `C[C@]12CC[C@@H]3c4ccc(O)cc4CC[C@H]3[C@@H]1CC[C@@]2(O)c1cn(-c2cccc(O)c2)nn1`, the EC50 was > 10000 nM.

Consider `C#C[C@]1(O)CC[C@H]2[C@@H]3CCc4cc(O)ccc4[C@@]3(C#N)CC[C@@]21C`, for which the half-maximal effective concentration (EC50) was > 10000 nM.

On to `C[C@]12CC[C@@H]3c4ccc(O)cc4CC[C@H]3[C@@H]1CC[C@@]2(O)c1cn(CCO)nn1`, for which the half-maximal effective concentration (EC50) is > 10000 nM.

On to `C[C@]12CC[C@]3(C#N)c4ccc(O)cc4CC[C@H]3[C@@H]1CC[C@@H]2O`, for which the EC50 was > 25 nM.
